Source: PubChem BioAssay (NCI)
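Dose response: 5 concentrations. Exposure: 48 h. Format: 96-well plates. Endpoint: linear interpolation; highest concentration if not reached. GI50 marks 50% less growth. Definition used: TGI = concentration required for complete inhibition of growth.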

Key:
Assay in all cases: NCI tumour cell line growth inhibition, 48 h
OVCAR-8 ovarian = system: OVCAR-8 ovarian
SK-MEL-2 melanoma = system: SK-MEL-2 melanoma
NCI-H23 lung = system: NCI-H23 lung
MALME-3M melanoma = system: MALME-3M melanoma
NCI-H460 lung = system: NCI-H460 lung
SF-539 CNS = system: SF-539 CNS
786-0 renal = system: 786-0 renal
SK-MEL-28 melanoma = system: SK-MEL-28 melanoma
EKVX NSCLC = system: EKVX NSCLC
HCT-116 colon = system: HCT-116 colon
HS 578T breast = system: HS 578T breast
MCF7 breast = system: MCF7 breast
U251 CNS = system: U251 CNS
NCI-H226 lung = system: NCI-H226 lung
TK-10 renal = system: TK-10 renal
UACC-257 melanoma = system: UACC-257 melanoma
SN12C renal = system: SN12C renal
HCC-2998 colon = system: HCC-2998 colon
HOP-62 NSCLC = system: HOP-62 NSCLC
NCI-H522 lung = system: NCI-H522 lung
OVCAR-3 ovarian = system: OVCAR-3 ovarian
CCRF-CEM leukemia = system: CCRF-CEM leukemia
HT29 colon = system: HT29 colon
SR leukemia = system: SR leukemia
HCT-15 colon = system: HCT-15 colon
KM12 colon = system: KM12 colon
OVCAR-5 ovarian = system: OVCAR-5 ovarian
SF-268 CNS = system: SF-268 CNS
SNB-75 CNS = system: SNB-75 CNS
SF-295 CNS = system: SF-295 CNS
RPMI-8226 leukemia = system: RPMI-8226 leukemia
PC-3 prostate = system: PC-3 prostate
K-562 leukemia = system: K-562 leukemia
ACHN renal = system: ACHN renal
MOLT-4 leukemia = system: MOLT-4 leukemia
HL-60(TB) leukemia = system: HL-60(TB) leukemia
BT-549 breast = system: BT-549 breast
SW-620 colon = system: SW-620 colon
DU-145 prostate = system: DU-145 prostate
HOP-92 NSCLC = system: HOP-92 NSCLC
MDA-MB-231 breast = system: MDA-MB-231 breast
RXF 393 renal = system: RXF 393 renal
CAKI-1 renal = system: CAKI-1 renal
A549 NSCLC = system: A549 NSCLC
OVCAR-4 ovarian = system: OVCAR-4 ovarian
SK-OV-3 ovarian = system: SK-OV-3 ovarian
MDA-MB-435 = system: MDA-MB-435
UACC-62 melanoma = system: UACC-62 melanoma
COLO 205 colon = system: COLO 205 colon
UO-31 renal = system: UO-31 renal
IGROV1 ovarian = system: IGROV1 ovarian
NCI/ADR-RES ovarian = system: NCI/ADR-RES ovarian
SNB-19 CNS = system: SNB-19 CNS
SK-MEL-5 melanoma = system: SK-MEL-5 melanoma
LOX IMVI melanoma = system: LOX IMVI melanoma
M14 melanoma = system: M14 melanoma
A498 renal = system: A498 renal

O=C(NCCCn1ccnc1[N+](=O)[O-])C(=O)NCCCn1ccnc1[N+](=O)[O-]
TGI (OVCAR-8 ovarian): > 100 µM
TGI (SK-MEL-2 melanoma): > 100 µM
TGI (NCI-H23 lung): > 100 µM
TGI (MALME-3M melanoma): > 100 µM
TGI (NCI-H460 lung): > 100 µM
TGI (SF-539 CNS): > 100 µM
TGI (786-0 renal): > 100 µM
TGI (SK-MEL-28 melanoma): > 100 µM
TGI (EKVX NSCLC): > 100 µM
TGI (HCT-116 colon): > 100 µM
TGI (HS 578T breast): > 100 µM
TGI (MCF7 breast): > 100 µM
TGI (U251 CNS): > 100 µM
TGI (NCI-H226 lung): > 100 µM
TGI (TK-10 renal): > 100 µM
TGI (UACC-257 melanoma): > 100 µM
TGI (SN12C renal): > 100 µM
TGI (HCC-2998 colon): > 100 µM
TGI (HOP-62 NSCLC): > 100 µM
TGI (NCI-H522 lung): > 100 µM
TGI (OVCAR-3 ovarian): > 100 µM
TGI (CCRF-CEM leukemia): > 100 µM
TGI (HT29 colon): > 100 µM
TGI (SR leukemia): > 100 µM
TGI (HCT-15 colon): > 100 µM
TGI (KM12 colon): > 100 µM
TGI (OVCAR-5 ovarian): > 100 µM
TGI (SF-268 CNS): > 100 µM
TGI (SNB-75 CNS): > 100 µM
TGI (SF-295 CNS): > 100 µM
TGI (RPMI-8226 leukemia): > 100 µM
TGI (PC-3 prostate): > 100 µM
TGI (K-562 leukemia): > 100 µM
TGI (ACHN renal): > 100 µM
TGI (MOLT-4 leukemia): > 100 µM
TGI (HL-60(TB) leukemia): > 100 µM

COc1ccc(C2NC(=S)NC3=C2COc2ccc(F)cc23)cc1OC (configuration not stated)
GI50 (OVCAR-8 ovarian): 19.4 µM
TGI (OVCAR-8 ovarian): 60.9 µM
GI50 (SK-MEL-2 melanoma): 55.4 µM
TGI (SK-MEL-2 melanoma): > 100 µM
GI50 (BT-549 breast): 27.9 µM
TGI (BT-549 breast): 83.3 µM
GI50 (NCI-H23 lung): 14.1 µM
TGI (NCI-H23 lung): 34.2 µM
GI50 (SW-620 colon): 24.5 µM
TGI (SW-620 colon): > 100 µM
GI50 (NCI-H460 lung): 24.1 µM
TGI (NCI-H460 lung): > 100 µM
GI50 (DU-145 prostate): 33.2 µM
TGI (DU-145 prostate): > 100 µM
GI50 (SF-539 CNS): 28.3 µM
TGI (SF-539 CNS): 67.4 µM
GI50 (786-0 renal): 28.6 µM
TGI (786-0 renal): > 100 µM
GI50 (SK-MEL-28 melanoma): 41.2 µM
TGI (SK-MEL-28 melanoma): > 100 µM
GI50 (HOP-92 NSCLC): 41.7 µM
TGI (HOP-92 NSCLC): > 100 µM
GI50 (EKVX NSCLC): 29.8 µM
TGI (EKVX NSCLC): > 100 µM
GI50 (HCT-116 colon): 16.6 µM
TGI (HCT-116 colon): 57.1 µM
GI50 (HS 578T breast): 7.75 µM
TGI (HS 578T breast): 38.1 µM
GI50 (MCF7 breast): 31.2 µM
TGI (MCF7 breast): > 100 µM
GI50 (MDA-MB-231 breast): 8.37 µM
TGI (MDA-MB-231 breast): 53.5 µM
GI50 (U251 CNS): 12.7 µM
TGI (U251 CNS): 29.5 µM
GI50 (NCI-H226 lung): 16.3 µM
TGI (NCI-H226 lung): 70.4 µM
GI50 (TK-10 renal): 31.2 µM
TGI (TK-10 renal): > 100 µM
GI50 (RXF 393 renal): 18.9 µM
TGI (RXF 393 renal): 60.8 µM
GI50 (CAKI-1 renal): 15.8 µM
TGI (CAKI-1 renal): 65 µM
GI50 (A549 NSCLC): 10.9 µM
TGI (A549 NSCLC): 36.7 µM
GI50 (UACC-257 melanoma): 14.2 µM
TGI (UACC-257 melanoma): 45.4 µM
GI50 (OVCAR-4 ovarian): 23 µM
TGI (OVCAR-4 ovarian): > 100 µM
GI50 (SN12C renal): 15.1 µM
TGI (SN12C renal): 50.1 µM
GI50 (HOP-62 NSCLC): 26.8 µM
TGI (HOP-62 NSCLC): > 100 µM
GI50 (SK-OV-3 ovarian): 71.2 µM
TGI (SK-OV-3 ovarian): > 100 µM
GI50 (NCI-H522 lung): 49.2 µM
TGI (NCI-H522 lung): > 100 µM
GI50 (MDA-MB-435): 12.3 µM
TGI (MDA-MB-435): 38.5 µM
GI50 (UACC-62 melanoma): 14.8 µM
TGI (UACC-62 melanoma): 41.8 µM
GI50 (OVCAR-3 ovarian): 11 µM
TGI (OVCAR-3 ovarian): 49.9 µM
GI50 (CCRF-CEM leukemia): 93.5 µM
TGI (CCRF-CEM leukemia): > 100 µM
GI50 (COLO 205 colon): 36.2 µM
TGI (COLO 205 colon): > 100 µM
GI50 (SR leukemia): 50.8 µM
TGI (SR leukemia): > 100 µM
GI50 (HCT-15 colon): 18.6 µM
TGI (HCT-15 colon): 87 µM
GI50 (KM12 colon): 25.9 µM
TGI (KM12 colon): > 100 µM
GI50 (OVCAR-5 ovarian): 18.6 µM
TGI (OVCAR-5 ovarian): 48.1 µM
GI50 (UO-31 renal): 39.2 µM
TGI (UO-31 renal): > 100 µM
GI50 (SF-268 CNS): 19 µM
TGI (SF-268 CNS): > 100 µM
GI50 (SF-295 CNS): 20.1 µM
TGI (SF-295 CNS): 70.3 µM
GI50 (RPMI-8226 leukemia): 13.5 µM
TGI (RPMI-8226 leukemia): > 100 µM
GI50 (PC-3 prostate): 14.2 µM
TGI (PC-3 prostate): 87.9 µM
GI50 (IGROV1 ovarian): 29.8 µM
TGI (IGROV1 ovarian): > 100 µM
GI50 (NCI/ADR-RES ovarian): 18.9 µM
TGI (NCI/ADR-RES ovarian): 44.4 µM
GI50 (K-562 leukemia): 15.9 µM
TGI (K-562 leukemia): > 100 µM
GI50 (SNB-19 CNS): 46.7 µM
TGI (SNB-19 CNS): > 100 µM
GI50 (ACHN renal): 13 µM
TGI (ACHN renal): 39.2 µM
GI50 (SK-MEL-5 melanoma): 13.5 µM
TGI (SK-MEL-5 melanoma): 30.7 µM
GI50 (LOX IMVI melanoma): 13.5 µM
TGI (LOX IMVI melanoma): 27.6 µM
GI50 (M14 melanoma): 33.9 µM
TGI (M14 melanoma): > 100 µM
GI50 (A498 renal): 13.4 µM
TGI (A498 renal): 36.1 µM
GI50 (MOLT-4 leukemia): 54.6 µM
TGI (MOLT-4 leukemia): > 100 µM
GI50 (HL-60(TB) leukemia): 18.5 µM
TGI (HL-60(TB) leukemia): 50.7 µM
